This test addresses T1, JAK2 (JH1domain-catalytic, Y1007F,Y1008F) kinase (Homo sapiens, UniProt O60674, Y1007F/Y1008F).
T1 construct: JAK2 (JH1domain-catalytic, Y1007F,Y1008F) kinase was expressed as N-terminal fusion; made in house; host or cells: transiently transfected HEK293 cells
Kind of test: JAK2 JH1 Domain Binding Assay. Particulars: qPCR readout. On the technique in general: Real-time PCR tracks product formation cycle by cycle.
T1 sequence (O60674 849-1124 Y1007F/Y1008F limits assumed): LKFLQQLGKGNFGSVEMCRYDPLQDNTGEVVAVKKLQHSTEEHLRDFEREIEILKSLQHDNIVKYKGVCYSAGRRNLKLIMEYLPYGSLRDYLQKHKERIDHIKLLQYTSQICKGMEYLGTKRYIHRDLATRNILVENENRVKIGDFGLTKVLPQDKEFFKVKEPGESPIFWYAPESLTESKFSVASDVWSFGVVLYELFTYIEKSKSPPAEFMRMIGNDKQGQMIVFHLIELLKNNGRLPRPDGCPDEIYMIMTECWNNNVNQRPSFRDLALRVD
Take `Cn1cc(C2CC2)cc(Nc2nc3ncc(Oc4cnn5ccncc45)c(Cl)c3n2C)c1=O` [Example I-57, 3-((7-chloro-1-methyl-6-(pyrazolo[1,5-a]pyrazin-3-yloxy)-1H-imidazo[4,5-b]pyridin-2-yl)amino)-5-cyclopropyl-1-methylpyridin-2(1H)-one]: the dissociation constant (Kd) – broadly, the free concentration of one partner at which half of the binding sites on the other are occupied at equilibrium, for simple one-to-one binding – was < 0.01 µM.
As for `COCCn1cc(C2CC2)cc(Nc2nc3ncc(Oc4cnn5ccncc45)c(OC)c3n2C)c1=O` [Example I-58, 5-cyclopropyl-3-((7-methoxy-1-methyl-6-(pyrazolo[1,5-a]pyrazin-3-yloxy)-1H-imidazo[4,5-b]pyridin-2-yl)amino)-1-(2-methoxyethyl)pyridin-2(1H)-one], the figure is < 0.01 µM; as for `Cn1cc(C2CC2)cc(Nc2nc3ncc(Oc4cnn5ccncc45)c(C(F)F)c3n2C)c1=O` [Example I-59, 5-cyclopropyl-3-((7-(difluoromethyl)-1-methyl-6-(pyrazolo[1,5-a]pyrazin-3-yloxy)-1H-imidazo[4,5-b]pyridin-2-yl)amino)-1-methylpyridin-2(1H)-one], < 0.01 µM; as for `Cn1c(Nc2cc(C(C)(C)C)n(CCC#N)n2)nc2ncc(Oc3cnn4ccncc34)c(Cl)c21` [Example I-61, 3-(5-(tert-butyl)-3-((7-chloro-1-methyl-6-(pyrazolo[1,5-a]pyrazin-3-yloxy)-1H-imidazo[4,5-b]pyridin-2-yl)amino)-1H-pyrazol-1-yl)propanenitrile], < 0.01 µM.
As for `COc1c(Oc2cnn3ccncc23)cnc2nc(Nc3cc(C(C)(C)C)n([C@@H]4CCN(CCF)C4)n3)n(C)c12` [Example I-62, (R)—N-(5-(tert-butyl)-1-(1-(2-fluoroethyl)pyrrolidin-3-yl)-1H-pyrazol-3-yl)-7-methoxy-1-methyl-6-(pyrazolo[1,5-a]pyrazin-3-yloxy)-1H-imidazo[4,5-b]pyridin-2-amine], the figure is 0.01 to 0.05 µM.
As for `Cn1c(Nc2cc(C(C)(C)C)n(CC#N)n2)nc2ncc(Oc3cnn4ccncc34)c(C(F)F)c21` [Example I-63, 2-(5-(tert-butyl)-3-((7-(difluoromethyl)-1-methyl-6-(pyrazolo[1,5-a]pyrazin-3-yloxy)-1H-imidazo[4,5-b]pyridin-2-yl)amino)-1H-pyrazol-1-yl)acetonitrile], the figure is 0.01 to 0.05 µM; as for `COc1c(Oc2cnn3ccncc23)cnc2nc(Nc3cc(C4CC4)cn(C)c3=O)n(C)c12` [Example I-64, 5-cyclopropyl-3-((7-methoxy-1-methyl-6-(pyrazolo[1,5-a]pyrazin-3-yloxy)-1H-imidazo[4,5-b]pyridin-2-yl)amino)-1-methylpyridin-2(1H)-one], < 0.01 µM.
Regarding `Cn1c(Nc2cc(C3CC3)cn(CCO)c2=O)nc2ncc(Oc3cnn4ccncc34)c(Cl)c21` [Example I-65, 3-((7-chloro-1-methyl-6-(pyrazolo[1,5-a]pyrazin-3-yloxy)-1H-imidazo[4,5-b]pyridin-2-yl)amino)-5-cyclopropyl-1-(2-hydroxyethyl)pyridin-2(1H)-one], the Kd is < 0.01 µM.
As for `Cn1c(Nc2cc(C(C)(C)C)n([C@H]3CCO[C@@H]3CO)n2)nc2ncc(Oc3cnn4ccncc34)c(Cl)c21` [Example I-66, ((2S,3S)-3-(5-(tert-butyl)-3-((7-chloro-1-methyl-6-(pyrazolo[1,5-a]pyrazin-3-yloxy)-1H-imidazo[4,5-b]pyridin-2-yl)amino)-1H-pyrazol-1-yl)tetrahydrofuran-2-yl)methanol], the figure is < 0.01 µM; as for `COc1c(Oc2cnn3ccncc23)cnc2nc(Nc3cc(C4CC4)cn(C4CCOCC4)c3=O)n(C)c12` [Example I-67, 5-cyclopropyl-3-((7-methoxy-1-methyl-6-(pyrazolo[1,5-a]pyrazin-3-yloxy)-1H-imidazo[4,5-b]pyridin-2-yl)amino)-1-(tetrahydro-2H-pyran-4-yl)pyridin-2(1H)-one], < 0.01 µM.
Turning to `Cn1c(Nc2cc(C3CC3)cn(C3CCOCC3)c2=O)nc2ncc(Oc3cnn4ccncc34)c(Cl)c21` [Example I-68, 3-((7-chloro-1-methyl-6-(pyrazolo[1,5-a]pyrazin-3-yloxy)-1H-imidazo[4,5-b]pyridin-2-yl)amino)-5-cyclopropyl-1-(tetrahydro-2H-pyran-4-yl)pyridin-2(1H)-one], the Kd was < 0.01 µM.
As for `Cn1c(Nc2cc(C3CC3)cn([C@H]3C[C@@H](O)C3)c2=O)nc2ncc(Oc3cnn4ccncc34)c(Cl)c21` [Example I-70, 3-((7-chloro-1-methyl-6-(pyrazolo[1,5-a]pyrazin-3-yloxy)-1H-imidazo[4,5-b]pyridin-2-yl)amino)-5-cyclopropyl-1-((1s,3s)-3-hydroxycyclobutyl)pyridin-2(1H)-one], the figure is < 0.01 µM; as for `COc1c(Oc2cnn3ccncc23)cnc2nc(Nc3cc(C4CC4)cn([C@H]4C[C@@H](O)C4)c3=O)n(C)c12` [Example I-74, cis-5-cyclopropyl-1-(3-hydroxycyclobutyl)-3-((7-methoxy-1-methyl-6-(pyrazolo[1,5-a]pyrazin-3-yloxy)-1H-imidazo[4,5-b]pyridin-2-yl)amino)pyridin-2(1H)-one], < 0.01 µM; as for `COc1c(Oc2cnn3ccncc23)cnc2nc(Nc3cc(C4CC4)cn([C@H]4C[C@H](O)C4)c3=O)n(C)c12` [Example I-75, trans-5-cyclopropyl-1-(3-hydroxycyclobutyl)-3-((7-methoxy-1-methyl-6-(pyrazolo[1,5-a]pyrazin-3-yloxy)-1H-imidazo[4,5-b]pyridin-2-yl)amino)pyridin-2(1H)-one], < 0.01 µM.
With `Cn1c(Nc2cc(C3CC3)cn([C@H]3C[C@H](C#N)C3)c2=O)nc2ncc(Oc3cnn4ccncc34)c(Cl)c21` [Example I-77, trans-3-(3-((7-chloro-1-methyl-6-(pyrazolo[1,5-a]pyrazin-3-yloxy)-1H-imidazo[4,5-b]pyridin-2-yl)amino)-5-cyclopropyl-2-oxopyridin-1(2H)-yl)cyclobutane-1-carbonitrile], the Kd is < 0.01 µM.
Consider `Cn1c(Nc2cc(C3CC3)cn(CCO)c2=O)nc2ncc(Oc3cnn4ccccc34)c(Cl)c21` [Example I-78, 3-((7-chloro-1-methyl-6-(pyrazolo[1,5-a]pyridin-3-yloxy)-1H-imidazo[4,5-b]pyridin-2-yl)amino)-5-cyclopropyl-1-(2-hydroxyethyl)pyridin-2(1H)-one], for which the Kd was < 0.01 µM.
As for `Cn1c(Nc2cc(C3CC3)cn([C@H]3C[C@H](O)C3)c2=O)nc2ncc(Oc3cnn4ccccc34)c(Cl)c21` [Example I-79, trans-3-((7-chloro-1-methyl-6-(pyrazolo[1,5-a]pyridin-3-yloxy)-1H-imidazo[4,5-b]pyridin-2-yl)amino)-5-cyclopropyl-1-(3-hydroxycyclobutyl)pyridin-2(1H)-one], the figure is < 0.01 µM; as for `Cn1c(Nc2cc(C3CC3)cn([C@H]3C[C@@H](C#N)C3)c2=O)nc2ncc(Oc3cnn4ccncc34)c(Cl)c21` [Example I-80, cis-3-(3-((7-chloro-1-methyl-6-(pyrazolo[1,5-a]pyrazin-3-yloxy)-1H-imidazo[4,5-b]pyridin-2-yl)amino)-5-cyclopropyl-2-oxopyridin-1(2H)-yl)cyclobutane-1-carbonitrile], < 0.01 µM; as for `Cn1c(Nc2cc(C(C)(C)C)n([C@H]3CCO[C@@H]3CO)n2)nc2ncc(Oc3cnc4ccnn4c3)c(Cl)c21` [Example I-82, ((2S,3S)-3-(5-(tert-butyl)-3-((7-chloro-1-methyl-6-(pyrazolo[1,5-a]pyrimidin-6-yloxy)-1H-imidazo[4,5-b]pyridin-2-yl)amino)-1H-pyrazol-1-yl)tetrahydrofuran-2-yl)methanol], 0.01 to 0.05 µM.
As for `Cn1c(Nc2cc(C(C)(C)C)n([C@H]3CCO[C@@H]3CO)n2)nc2ncc(Oc3cnn4ccnc4c3)c(Cl)c21` [Example I-83, ((2S,3S)-3-(5-(tert-butyl)-3-((7-chloro-6-(imidazo[1,2-b]pyridazin-7-yloxy)-1-methyl-1H-imidazo[4,5-b]pyridin-2-yl)amino)-1H-pyrazol-1-yl)tetrahydrofuran-2-yl)methanol], the figure is 0.01 to 0.05 µM; as for `Cn1cc(C2CC2)cc(Nc2nc3ncc(Oc4cnc5cnc(C6CC6)n5c4)c(Cl)c3n2C)c1=O` [Example I-84, 3-((7-chloro-6-((6-cyclopropylimidazo[1,5-a]pyrimidin-3-yl)oxy)-1-methyl-1H-imidazo[4,5-b]pyridin-2-yl)amino)-5-cyclopropyl-1-methylpyridin-2(1H)-one], < 0.01 µM; as for `Cn1c(Nc2cc(C3CC3)cn(C3CC4(COC4)C3)c2=O)nc2ncc(Oc3cnn4ccncc34)c(Cl)c21` [Example I-85, 3-((7-chloro-1-methyl-6-(pyrazolo[1,5-a]pyrazin-3-yloxy)-1H-imidazo[4,5-b]pyridin-2-yl)amino)-5-cyclopropyl-1-(2-oxaspiro[3.3]heptan-6-yl)pyridin-2(1H)-one], < 0.01 µM.
As for `Cn1c(Nc2cc(C(C)(C)C)n(C3COC3)n2)nc2ncc(Oc3cnn4ccncc34)c(Cl)c21` [Example I-86, N-(5-(tert-butyl)-1-(oxetan-3-yl)-1H-pyrazol-3-yl)-7-chloro-1-methyl-6-(pyrazolo[1,5-a]pyrazin-3-yloxy)-1H-imidazo[4,5-b]pyridin-2-amine], the figure is < 0.01 µM; as for `Cn1c(Nc2cc(C(C)(C)C)n([C@H]3CCO[C@@H]3CO)n2)nc2ncc(Oc3cnc4cnc(C5CC5)n4c3)c(Cl)c21` [Example I-87, ((2S,3S)-3-(5-(tert-butyl)-3-((7-chloro-6-((6-cyclopropylimidazo[1,5-a]pyrimidin-3-yl)oxy)-1-methyl-1H-imidazo[4,5-b]pyridin-2-yl)amino)-1H-pyrazol-1-yl)tetrahydrofuran-2-yl)methanol], 0.01 to 0.05 µM; as for `Cn1c(Nc2cc(C(C)(C)C)n([C@H]3C[C@H](O)C3)n2)nc2ncc(Oc3cnc4cnc(C5CC5)n4c3)c(Cl)c21` [Example I-88, trans-3-(5-(tert-butyl)-3-((7-chloro-6-((6-cyclopropylimidazo[1,5-a]pyrimidin-3-yl)oxy)-1-methyl-1H-imidazo[4,5-b]pyridin-2-yl)amino)-1H-pyrazol-1-yl)cyclobutan-1-ol], 0.01 to 0.05 µM.
